CC(C)(OOC(C)(C)c1ccccc1)c1ccccc1
solubility (mole fraction)
Conditions	274.15 K	278.15 K	282.15 K	286.15 K	290.15 K	294.15 K	298.15 K	302.15 K
in DMF	0.152	0.196	0.246	0.305	0.365	0.44	0.518	0.619
in ethanol	0.0152	0.0188	0.0236	0.0303	0.0418	0.0573	0.0851	0.142
in isopropanol	0.0132	0.0168	0.0219	0.0291	0.0398	0.0567	0.0859	0.143
in methanol	0.00668	0.00933	0.0118	0.0154	0.02	0.0283	0.0395	0.0602
in n-butanol	0.0241	0.0317	0.0407	0.0541	0.07	0.0974	0.144	0.237
in n-propanol	0.019	0.0253	0.0317	0.0425	0.0568	0.0783	0.118	0.194
in sec-butanol	0.0161	0.0208	0.0275	0.036	0.0486	0.0724	0.107	0.183
